According to patent publication US6509343B1 (priority 1996, dated 2003):

Key:
Format in all cases: in vivo
[1] = tested on: Phytophthora infestans; experiment: whole plant or invertebrate
[2] = tested on: Fusarium nivale; experiment: Fusarium nivale test (triticale)/seed treatment; conditions: about 3 weeks after sowing
Method: The active compounds are applied as a dry seed dressing. This is prepared by extending the respective active compound with ground mineral to give a finely pulverulent mixture which ensures uniform distribution on the seed surface.
To dress the seed, the infected seed together with the seed dressing is shaken for 3 minutes in a sealed glass flask.
2×100 corns of triticale are sown at a depth of 1 cm in standard soil and cultivated in a greenhouse at a temperature of about 10° C. and a relative atmospheric humidity of about 95% in seed trays which receive a light regimen of 15 hours per day.
About 3 weeks after sowing, the plants are evaluated for symptoms of snow mould. 0% means an efficacy which corresponds to that of the untreated control, while an efficacy of 100% means that no disease is observed.

[3] = tested on: Pyrenophora teres; experiment: Pyrenophora teres test (barley)/curative; conditions: 6.25 g/ha, curative, 7 days after inoculation
Method: Solvent: 25 parts by weight of N,N-dimethylacetamide
Emulsifier: 0.6 part by weight of alkylaryl polyglycol ether
To produce a suitable preparation of active compound, 1 part by weight of active compound or active compound combination is mixed with the stated amounts of solvent and emulsifier, and the concentrate is diluted with water to the desired concentration.
To test for curative activity, young plants are sprayed with a conidia suspension of Pyrenophora teres. The plants remain in an incubation cabin at 20° C. and 100% relative atmospheric humidity for 48 hours. The plants are subsequently sprayed with the preparation of active compound at the stated application rate.
The plants are placed in a greenhouse at a temperature of about 20° C. and a relative atmospheric humidity of about 80%.
Evaluation is carried out 7 days after the inoculation. 0% means an efficacy which corresponds to that of the control, whereas an efficacy of 100% means that no infection is observed.

[4] = Phytophthora infestans, in Solanum lycopersicum, 72 h, read-out: % efficacy

Q: For `CCNC(=O)NC(=O)/C(C#N)=N/OC` [Cymoxanil (M), cymoxanil], which “% efficacy” value ([1]; in vivo) is on record?
A: The value was 12%.

Q: Which Efficacy in % ([2]; 75 mg/kg of seed) does the source give for `N#Cc1c[nH]cc1-c1cccc(Cl)c1Cl` [(Fenpiclonil) z, fenpiclonil] here?
A: The Efficacy in % was 67%.

Q: With `O=C(Nc1ccccc1)N(Cc1ccc(Cl)cc1)C1CCCC1` [(Pencycuron) P, pencycuron] as the molecule, how does the Efficacy in % ([2]; 25 mg/kg of seed) read?
A: Its Efficacy in % is 29%.

Q: How did the Emax at 5 g/ha [1, 4] turn out when `CCC1(C(=O)NC(C)c2ccc(Cl)cc2)C(C)C1(Cl)Cl` [(ω), N-(R)-[1-(4-chloro-phenyl)-ethyl]-2,2-dichloro-1ethyl-3t-methyl-1r-cyclopropane-carboxamide] was run?
A: Its Emax at 5 g/ha is 3%.

Q: How did the Efficacy in % [3] turn out when `CON=C(C1=NOCCO1)c1ccccc1Oc1ncnc(Oc2ccccc2Cl)c1F` [(I)] was run?
A: The Efficacy in % was 0%.

Q: With `CC(C)(C)C(O)C(Oc1ccc(Cl)cc1)n1cncn1` (stereo not shown) [(F), triadimenol] as the molecule, how does the Efficacy in % [3] read?
A: The Efficacy in % was 0%.

Q: Which Emax at 1 g/ha [1, 4] does the source give for `COc1ccc(/C(=C\C(=O)N2CCOCC2)c2ccc(Cl)cc2)cc1OC` [Dimetomorph (L), dimetomorph] here?
A: The Emax at 1 g/ha was 0%.
